# According to patent US20090258878A1, “TRIAZINE DERIVATIVE COMPOUND AND COMPOSITION FOR TREATING CANCER […]” (priority 2006, published 2009):
# Where two headings read alike, the source gives them in different places.
# Legend:
# [1] = system: breast cancers naturally formed in female mouse transformed to form cancer (HCCR-1); settings: for anticancer effect against breast cancer formed in transformed mouse in vivo / breast cancer after one administration: 100 μM; for anti-cancer effect on transformed animal model, rank order (FIG. 11) / formation of cancer again at second injection: 100 μM weekly; for formation of cancer again at second injection: transformed mouse; for breast cancer after one administration: transformed mouse with naturally formed breast cancer
# Experimental: Anticancer effect of Dan-BC1, Dan-BC2 and Dan-BC3 according to the present invention was assessed using the mouse transformed with human proto-oncogene causing cancer which was over-expressed in mammal.
# Since the cell line used for the transformed mouse has capacity for forming tumor, it forms a carcinoma such as palpable tumor when transplanted into mammal. Cell line used in the present experiment produces a large quantity of HCCR-1 protein by overexpressing human proto-oncogene (hereafter, HCCR-1), which protein interacts with D52 protein (GenBank Reg. No. NM003288) as reported as being related to cancer (Byrne, J. A. et al., Cancer Res., 55, 2896-2903 (1995); and Bryne, J. A. et al., Oncogene, 16, 873-881 (1998) reference), activates protein Kinases C and Telomerase, incapacitates the function of controlling cell cycle checkpoint, and transforms into malignant tumor though the course of lowering the expression of egr-1 gene.
# [2] = system: MCF-7 breast cancer cell line; settings: for growth inhibition effect on cell (FIG. 1): 2 days
# Experimental: 2×10^5 MCF-7 cells were respectively distributed into each 6 well plates and grown. Thereafter, Dan-BC1, Dan-BC2 and Dan-BC3 compounds were diluted to be dose concentration of 10, 50 and 100 μM, and after treating them into cancers for 2 days according to the concentration, they were compared by measuring the cell viability with those of drug-untreated group.
# MCF-7 tumor cells = settings: for Height of breast cancer mass / Major Axis of breast cancer mass / Minor Axis of breast cancer mass: nude mouse; for in vivo anticancer effect regarding breast cancer formed in nude mouse: two administrations of 500 μM, vs negative control mass size
# Experimental: Weekly administration of experiment compound was initiated 2 days after measurement of tumor size. The concentration of the first administration was 500 μM, respectively.
# [3] = 1 week after First Administration, 500 μM
# [4] = 1 day before First Administration
# [5] = the day of First Administration, 500 μM
SMILES,anticancer effect against breast cancer formed in transformed mouse in vivo [1],"anti-cancer effect on transformed animal model, rank order (FIG. 11) [1]",breast cancer after one administration [1],growth inhibition effect on cell (FIG. 1) ([2]; 10 μM),growth inhibition effect on cell (FIG. 1) ([2]; 50 μM),"cells survived compared with cells without administration ([2]; 100 μM, 12 hours)","cells survived compared with cells without administration ([2]; 100 μM, 24 hours)","cells survived compared with cells without administration ([2]; 100 μM, 36 hours)",growth inhibition effect on cell (FIG. 1) ([2]; 100 μM),"cells survived compared with cells without administration ([2]; 100 μM, 48 hours)","extinction effect on breast cancer cell in nude mouse, rank order (FIG. 7) (MCF-7 tumor cells; 500 μM)",Height of breast cancer mass (MCF-7 tumor cells; [3]) [mm],Major Axis of breast cancer mass (MCF-7 tumor cells; [3]) [mm],Minor Axis of breast cancer mass (MCF-7 tumor cells; [3]) [mm],Height of breast cancer mass (MCF-7 tumor cells; [4]) [mm],Major Axis of breast cancer mass (MCF-7 tumor cells; [4]) [mm],Minor Axis of breast cancer mass (MCF-7 tumor cells; [4]) [mm],Height of breast cancer mass (MCF-7 tumor cells; [5]) [mm],Major Axis of breast cancer mass (MCF-7 tumor cells; [5]) [mm],Minor Axis of breast cancer mass (MCF-7 tumor cells; [5]) [mm],other results
CCCCNc1nc(NCc2ccncc2)nc(NCc2ccc(C(=O)NCCOCCOCCNC(=O)c3ccccc3)cc2)n1 [Dan-BC2],showed anticancer effect,"as an order of the next Dan-BC3, and Dan-BC2",breast cancer became extinct,weak growth inhibition effect on cell,no significant growth inhibition effect on cell,about 75%,about 49%,about 33%,an extinct effect on cell was apparent to the naked eye,20%,"high in case of Dan-BC1, Dan-BC3 compound, and Dan-BC2 compound in that order",3,15,10,2,4,2,5,12,10,formation of cancer again at second injection [1]: formation of cancer was induced again at the time of the 2nd injection; in vivo anticancer effect regarding breast cancer formed in nude mouse (MCF-7 tumor cells): strong in vivo anticancer effect
CCCCNc1nc(NCc2ccc(C(=O)NCCOCCOCCNC(=O)c3ccccc3)cc2)nc(NC(CC)CC)n1 [Dan-BC3],showed anticancer effect,"as an order of the next Dan-BC3, and Dan-BC2",breast cancer became extinct,weak growth inhibition effect on cell,no significant growth inhibition effect on cell,about 60%,about 37%,about 7%,an extinct effect on cell was apparent to the naked eye,all cells reached extinct,"high in case of Dan-BC1, Dan-BC3 compound, and Dan-BC2 compound in that order",2,15,10,2,4,2,5,12,7,formation of cancer again at second injection [1]: formation of cancer was derived again at the time of the second injection; in vivo anticancer effect regarding breast cancer formed in nude mouse (MCF-7 tumor cells): strong in vivo anticancer effect
C=CCNc1nc(NCCCC)nc(NCc2ccc(C(=O)NCCOCCOCCNC(=O)c3ccccc3)cc2)n1 [Dan-BC1],strong anticancer effect,the most superior,extinction of breast cancer was resulted even with administration of only once,weak growth inhibition effect on cell,no significant growth inhibition effect on cell,about 68%,about 37%,about 27%,an extinct effect on cell was apparent to the naked eye,all cells reached extinction,"high in case of Dan-BC1, Dan-BC3 compound, and Dan-BC2 compound in that order",2,10,8,2,4,2,5,12,10,in vivo anticancer effect regarding breast cancer formed in nude mouse (MCF-7 tumor cells): strong in vivo anticancer effect
